# Assay results published in the supplement of paper PMC10307832.
# Tests used:
# Test in all cases: relative viability (nuclei count vs DMSO), 5 days (fraction); higher = more cells survive
# Tipifarnib + Olaparib = compound: Cn1cncc1[C@@](N)(c1ccc(Cl)cc1)c1ccc2c(c1)c(-c1cccc(Cl)c1)cc(=O)n2C [Tipifarnib] + O=C(c1cc(Cc2n[nH]c(=O)c3ccccc23)ccc1F)N1CCN(C(=O)C2CC2)CC1 [Olaparib] (partner 8 µM)
# Outline: (§1)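 The day after seeding in 1536-well plates, lung cancer cell lines were treated by pin tool with a single drug, or with a fixed anchor-drug dose together with five library-drug doses (not always all listed) in √10 steps. After 5 days, a combined fix-and-stain solution (final 0.05% Triton X-100, 1% formaldehyde, 1 ug/ml Hoechst) was added. Nuclei counted on 4× images gave relative viability as treated counts over vehicle counts, reported as the median of duplicate plates.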
# Tipifarnib + Phenformin = compound: Cn1cncc1[C@@](N)(c1ccc(Cl)cc1)c1ccc2c(c1)c(-c1cccc(Cl)c1)cc(=O)n2C [Tipifarnib] + N=C(N)NC(=N)NCCc1ccccc1 [Phenformin] (partner 250 µM)
# Outline: as §1
# Tipifarnib + Lapatinib = compound: Cn1cncc1[C@@](N)(c1ccc(Cl)cc1)c1ccc2c(c1)c(-c1cccc(Cl)c1)cc(=O)n2C [Tipifarnib] + CS(=O)(=O)CCNCc1ccc(-c2ccc3ncnc(Nc4ccc(OCc5cccc(F)c5)c(Cl)c4)c3c2)o1 [Lapatinib] (partner 2 µM)
# Outline: as §1
# Tipifarnib + Trametinib = compound: Cn1cncc1[C@@](N)(c1ccc(Cl)cc1)c1ccc2c(c1)c(-c1cccc(Cl)c1)cc(=O)n2C [Tipifarnib] + CC(=O)Nc1cccc(-n2c(=O)n(C3CC3)c(=O)c3c(Nc4ccc(I)cc4F)n(C)c(=O)c(C)c32)c1 [Trametinib] (partner 0.02 µM)
# Outline: as §1
Cell Line,relative viability (Tipifarnib + Olaparib; first compound 0.01 µM),relative viability (Tipifarnib + Olaparib; first compound 0.03162 µM),relative viability (Tipifarnib + Olaparib; first compound 0.1 µM),relative viability (Tipifarnib + Olaparib; first compound 0.3162 µM),relative viability (Tipifarnib + Olaparib; first compound 1 µM),relative viability (Tipifarnib + Phenformin; first compound 0.01 µM),relative viability (Tipifarnib + Phenformin; first compound 0.03162 µM),relative viability (Tipifarnib + Phenformin; first compound 0.1 µM),relative viability (Tipifarnib + Phenformin; first compound 0.3162 µM),relative viability (Tipifarnib + Phenformin; first compound 1 µM),relative viability (Tipifarnib + Lapatinib; first compound 0.01 µM),relative viability (Tipifarnib + Lapatinib; first compound 0.03162 µM),relative viability (Tipifarnib + Lapatinib; first compound 0.1 µM),relative viability (Tipifarnib + Lapatinib; first compound 0.3162 µM),relative viability (Tipifarnib + Lapatinib; first compound 1 µM),relative viability (Tipifarnib + Trametinib; first compound 0.01 µM),relative viability (Tipifarnib + Trametinib; first compound 0.03162 µM),relative viability (Tipifarnib + Trametinib; first compound 0.1 µM),relative viability (Tipifarnib + Trametinib; first compound 0.3162 µM),relative viability (Tipifarnib + Trametinib; first compound 1 µM)
NCI-H661,0.769,0.738,0.661,0.605,0.617,0.29,0.283,0.275,0.261,0.309,0.636,0.56,0.375,0.424,0.397,0.627,0.487,0.482,0.396,0.456
NCI-H1993,1.04,0.94,0.937,0.701,0.604,0.414,0.508,0.529,0.518,0.559,0.747,0.835,0.699,0.716,0.779,0.575,0.476,0.485,0.594,0.61
NCI-H1437,0.656,0.638,0.643,0.585,0.608,0.266,0.315,0.296,0.218,0.228,0.873,0.864,0.738,0.727,0.248,0.591,0.596,0.619,0.406,0.446
UMC-11,0.432,0.356,0.357,0.346,0.339,0.332,0.311,0.303,0.251,0.238,0.84,0.605,0.595,0.475,0.281,0.653,0.569,0.471,0.377,0.301
201T,0.851,0.86,0.83,0.733,0.793,0.493,0.441,0.457,0.402,0.362,0.988,1.05,0.965,0.947,0.866,0.75,0.734,0.722,0.656,0.649
NCI-H358,0.607,0.578,0.542,0.48,0.34,0.372,0.45,0.307,0.323,0.168,0.455,0.444,0.443,0.424,0.352,0.143,0.102,0.133,0.107,0.135
NCI-H1650,0.747,0.505,0.358,0.321,0.416,0.291,0.209,0.196,0.262,0.187,0.687,0.643,0.486,0.376,0.211,0.442,0.285,0.474,0.294,0.236
LOU-NH91,0.929,0.904,0.857,0.802,0.824,0.652,0.589,0.688,0.569,0.414,0.794,0.658,0.675,0.669,0.499,0.825,0.747,0.73,0.69,0.723
HOP-62,0.337,0.395,0.205,0.193,0.2,0.573,0.418,0.403,0.353,0.347,0.841,0.301,0.454,0.244,0.265,0.375,0.297,0.258,0.261,0.282
NCI-H1915,0.237,0.248,0.25,0.231,0.242,0.383,0.359,0.341,0.267,0.236,0.927,0.67,0.56,0.416,0.282,0.298,0.269,0.214,0.201,0.195
NCI-H3122,0.685,0.681,0.482,0.422,0.415,0.413,0.419,0.419,0.356,0.228,1.01,0.917,0.961,0.73,0.811,0.244,0.215,0.213,0.211,0.185
NCI-H1651,0.213,0.194,0.236,0.22,0.222,0.322,0.327,0.319,0.266,0.235,0.931,0.799,0.919,0.85,0.426,0.827,0.754,0.781,0.832,0.802
NCI-H838,0.741,0.675,0.683,0.626,0.617,0.547,0.504,0.421,0.44,0.389,0.965,0.952,0.644,0.615,0.393,0.47,0.483,0.434,0.431,0.374
NCI-H596,0.667,0.693,0.65,0.574,0.593,0.801,0.745,0.663,0.574,0.658,0.99,1.09,1.04,0.868,0.608,0.759,1,0.593,0.53,0.527
SK-LU-1,0.527,0.419,0.525,0.395,0.292,0.528,0.324,0.307,0.275,0.283,0.725,0.75,0.857,0.388,0.367,0.572,0.483,0.442,0.384,0.392
NCI-H650,0.543,0.394,0.376,0.334,0.303,0.411,0.419,0.419,0.408,0.277,0.719,0.837,0.599,0.434,0.345,1.09,0.911,0.841,0.696,0.549

Cell Line,relative viability (Tipifarnib + Olaparib; first compound 0.01 µM),relative viability (Tipifarnib + Olaparib; first compound 0.03162 µM),relative viability (Tipifarnib + Olaparib; first compound 0.1 µM),relative viability (Tipifarnib + Olaparib; first compound 0.3162 µM),relative viability (Tipifarnib + Olaparib; first compound 1 µM),relative viability (Tipifarnib + Phenformin; first compound 0.01 µM),relative viability (Tipifarnib + Phenformin; first compound 0.03162 µM),relative viability (Tipifarnib + Phenformin; first compound 0.1 µM),relative viability (Tipifarnib + Phenformin; first compound 0.3162 µM),relative viability (Tipifarnib + Phenformin; first compound 1 µM),relative viability (Tipifarnib + Lapatinib; first compound 0.01 µM),relative viability (Tipifarnib + Lapatinib; first compound 0.03162 µM),relative viability (Tipifarnib + Lapatinib; first compound 0.1 µM),relative viability (Tipifarnib + Lapatinib; first compound 0.3162 µM),relative viability (Tipifarnib + Lapatinib; first compound 1 µM),relative viability (Tipifarnib + Trametinib; first compound 0.01 µM),relative viability (Tipifarnib + Trametinib; first compound 0.03162 µM),relative viability (Tipifarnib + Trametinib; first compound 0.1 µM),relative viability (Tipifarnib + Trametinib; first compound 0.3162 µM),relative viability (Tipifarnib + Trametinib; first compound 1 µM)
SK-MES-1,0.733,0.612,0.783,0.622,0.459,0.659,0.663,0.651,0.619,0.57,0.466,0.455,0.481,0.411,0.386,0.465,0.539,0.54,0.459,0.601
NCI-H1792,0.301,0.279,0.208,0.169,0.122,,,0.125,0.0695,0.114,0.942,0.941,0.782,0.574,0.298,0.409,0.241,0.246,0.242,0.239
NCI-H1355,0.801,0.706,0.55,0.559,0.507,0.427,0.44,0.429,0.403,0.344,0.999,0.871,0.746,0.67,0.516,0.486,0.387,0.357,0.352,0.339
SW 1573,0.428,0.305,0.307,0.233,0.27,0.362,0.299,0.268,0.156,0.197,1.08,1.13,0.669,0.648,0.243,0.487,0.354,0.362,0.255,0.25
NCI-H2347,0.59,0.46,0.563,0.473,0.472,0.474,0.405,0.501,0.318,0.315,0.827,0.727,0.642,0.582,0.642,0.308,0.283,0.269,0.261,0.293
LCLC-97TM1,0.447,0.245,0.315,0.229,0.239,0.423,0.382,0.446,0.355,0.231,0.998,1.02,0.554,0.504,0.237,0.202,0.209,0.171,0.17,0.157
EMC-BAC-2,0.502,0.441,0.482,0.427,0.429,0.501,0.437,0.459,0.485,0.357,0.897,0.854,0.771,0.718,0.351,0.81,0.754,0.655,0.606,0.614
NCI-H1975,0.863,0.764,0.782,0.559,0.505,0.435,0.403,0.413,0.347,0.274,1.01,0.933,0.933,0.631,0.65,0.316,0.272,0.337,0.252,0.288
BEN,1.26,1.11,0.954,0.96,0.954,0.294,0.272,0.273,0.255,0.262,0.743,0.842,0.629,0.578,0.568,0.95,0.87,0.873,0.856,0.761
NCI-H23,0.318,0.241,0.33,0.266,0.21,0.845,0.752,0.564,0.435,0.346,1.4,0.949,0.717,0.439,0.23,0.368,0.493,0.398,0.292,0.204
NCI-H520,0.351,0.348,0.318,0.293,0.273,0.591,0.319,0.447,0.425,0.267,0.996,0.79,0.838,0.708,0.321,0.87,0.642,0.7,0.521,0.315
CAL-12T,0.717,0.587,0.527,0.455,0.465,0.533,0.414,0.379,0.378,0.231,0.709,0.716,0.619,0.525,0.393,0.359,0.289,0.234,0.222,0.177
EPLC-272H,0.86,0.481,0.578,0.35,0.222,0.357,0.328,0.344,0.266,0.149,1.02,0.88,0.761,0.64,0.216,0.336,0.274,0.246,0.303,0.234
NCI-H2405,0.88,0.899,0.903,0.801,0.838,0.384,0.371,0.374,0.415,0.361,1.06,0.942,0.949,0.878,0.625,0.7,0.518,0.487,0.489,0.582
HCC-15,0.758,0.75,0.793,0.631,0.56,0.407,0.392,0.368,0.338,0.223,0.802,0.702,0.639,0.488,0.215,0.36,0.35,0.273,0.258,0.221
PC-3 [JPC-3],1.19,0.978,0.981,0.775,0.654,0.513,0.44,0.458,0.399,0.377,0.461,0.489,0.431,0.38,0.311,0.726,0.61,0.531,0.494,0.478
